From ChEMBL document CHEMBL5620380, “Identification of 5-[5-cyano-1-(pyridin-2-ylmethyl)-1H-indole-3-carboxamido] thiazole-4-carboxylic acid as a promising dual inhibitor of urate transporter 1 and xanthine oxidase” (Eur J Med Chem, 2023)
Activity calls are given as the source filed them. The rule behind the calls is not given here.

Assays:
[1] = biological target: T1, Solute carrier family 22 member 12 (Homo sapiens, UniProt Q96S37); assay: Inhibition of URAT1 (unknown origin)-mediated 14C uric acid uptake expressed in HEK293 cells using 14C uric acid as substrate at 10 uM by liquid scintillation counting analysis; type: cell-based
T1 sequence (Q96S37 whole entry): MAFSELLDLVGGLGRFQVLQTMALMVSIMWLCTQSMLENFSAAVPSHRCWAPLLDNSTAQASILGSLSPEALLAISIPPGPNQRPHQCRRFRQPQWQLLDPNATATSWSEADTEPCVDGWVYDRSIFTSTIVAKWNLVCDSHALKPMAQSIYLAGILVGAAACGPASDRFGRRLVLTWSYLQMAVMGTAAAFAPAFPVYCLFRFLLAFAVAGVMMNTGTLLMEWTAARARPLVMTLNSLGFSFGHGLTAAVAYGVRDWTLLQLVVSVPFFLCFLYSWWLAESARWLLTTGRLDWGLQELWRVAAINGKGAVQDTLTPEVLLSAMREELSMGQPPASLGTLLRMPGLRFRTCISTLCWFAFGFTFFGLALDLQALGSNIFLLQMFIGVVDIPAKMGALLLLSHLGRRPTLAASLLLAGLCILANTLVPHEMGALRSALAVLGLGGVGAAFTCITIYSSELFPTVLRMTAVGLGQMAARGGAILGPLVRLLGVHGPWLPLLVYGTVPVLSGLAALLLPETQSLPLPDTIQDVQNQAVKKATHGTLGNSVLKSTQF

[2] = biological target: T2, Xanthine dehydrogenase/oxidase (Bos taurus, UniProt P80457); assay: Inhibition of bovine XO assessed as inhibition of uric acid production using xanthine as substrate preincubated for 25 mins followed by substrate addition and measured for first 2 mins by spectrophotometric analysis
T2 sequence (P80457 whole entry): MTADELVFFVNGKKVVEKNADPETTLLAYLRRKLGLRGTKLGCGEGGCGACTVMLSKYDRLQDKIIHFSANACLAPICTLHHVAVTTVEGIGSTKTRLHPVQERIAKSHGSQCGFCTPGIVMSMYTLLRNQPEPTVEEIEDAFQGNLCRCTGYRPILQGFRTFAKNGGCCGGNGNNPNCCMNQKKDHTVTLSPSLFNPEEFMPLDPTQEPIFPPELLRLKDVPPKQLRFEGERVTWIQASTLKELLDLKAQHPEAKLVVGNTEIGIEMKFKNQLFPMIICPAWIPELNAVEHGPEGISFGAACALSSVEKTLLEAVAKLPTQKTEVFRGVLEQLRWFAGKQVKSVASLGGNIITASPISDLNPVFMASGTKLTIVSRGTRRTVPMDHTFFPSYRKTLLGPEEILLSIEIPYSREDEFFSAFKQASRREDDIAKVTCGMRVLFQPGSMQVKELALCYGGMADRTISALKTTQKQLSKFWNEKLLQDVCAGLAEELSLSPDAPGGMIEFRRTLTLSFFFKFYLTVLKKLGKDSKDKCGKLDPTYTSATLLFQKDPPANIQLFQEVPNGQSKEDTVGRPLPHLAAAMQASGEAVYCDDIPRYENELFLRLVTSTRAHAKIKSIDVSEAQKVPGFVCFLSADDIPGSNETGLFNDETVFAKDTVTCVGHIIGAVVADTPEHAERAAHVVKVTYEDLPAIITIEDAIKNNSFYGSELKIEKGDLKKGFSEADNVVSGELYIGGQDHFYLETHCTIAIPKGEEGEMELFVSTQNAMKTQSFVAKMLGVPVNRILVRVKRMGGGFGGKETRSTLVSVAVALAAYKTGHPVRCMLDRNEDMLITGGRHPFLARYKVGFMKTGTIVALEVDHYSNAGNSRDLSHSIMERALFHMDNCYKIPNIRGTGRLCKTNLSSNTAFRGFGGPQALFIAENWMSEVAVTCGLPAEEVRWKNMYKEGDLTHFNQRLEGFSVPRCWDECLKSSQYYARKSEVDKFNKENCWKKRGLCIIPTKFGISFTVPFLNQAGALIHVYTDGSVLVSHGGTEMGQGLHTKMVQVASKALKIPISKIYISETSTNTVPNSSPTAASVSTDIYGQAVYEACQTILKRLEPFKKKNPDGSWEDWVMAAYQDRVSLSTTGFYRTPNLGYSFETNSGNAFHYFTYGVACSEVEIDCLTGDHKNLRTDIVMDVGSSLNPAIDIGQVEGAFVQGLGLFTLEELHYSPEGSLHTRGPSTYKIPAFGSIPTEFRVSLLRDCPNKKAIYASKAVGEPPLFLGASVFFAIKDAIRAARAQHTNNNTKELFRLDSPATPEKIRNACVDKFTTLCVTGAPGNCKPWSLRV

[3] = tested on: Rattus norvegicus; assay: Hypouricemic activity against potassium oxonate-induced hyperuricemia Sprague-Dawley rat model assessed as decrease in serum uric acid level at 10 mg/kg, ig administered 1 hr post-potassium oxonate challenge and measured after 1 to 5 hrs; type: functional, organism-based; conditions: time 1-5 hrs
[4] = biological target: T2, Xanthine dehydrogenase/oxidase; assay: Potency index, ratio of allopurinol IC50 to test compound IC50 for inhibition of bovine XO; conditions: cattle
[5] = tested on: Rattus norvegicus; assay: Hypouricemic activity against potassium oxonate-induced hyperuricemia Sprague-Dawley rat model assessed as decrease in AUC of serum uric acid level at 10 mg/kg, ig administered 1 hr post-potassium oxonate challenge and measured after 1 to 5 hrs; type: functional; conditions: po, time 1-5 hrs
[6] = biological target: T2, Xanthine dehydrogenase/oxidase; assay: Mixed inhibition of bovine XO assessed as increase in Km with decrease in Vmax using xanthine as substrate by Lineweaver-Burk plot analysis; conditions: cattle
[7] = tested on: Rattus norvegicus; assay: Hypouricemic activity against potassium oxonate-induced hyperuricemia Sprague-Dawley rat model assessed as decrease in serum uric acid level at 10 mg/kg, ig administered 1 hr post-potassium oxonate challenge and measured after 3 hrs; type: functional; conditions: po
[8] = biological target: T2, Xanthine dehydrogenase/oxidase; assay: Inhibition of bovine XO assessed as inhibition of uric acid production using xanthine as substrate at 10 uM preincubated for 25 mins followed by substrate addition and measured for first 2 mins by spectrophotometric analysis; conditions: cattle, time 27 min

| SMILES | inhibition at 10 µM [1] [%] | also measured |
| --- | --- | --- |
| O=C(O)c1ccccc1NC(=O)c1cn(Cc2ccccc2F)c2ccccc12 | 40.7 | – |
| O=C(O)c1ccccc1NC(=O)c1cn(Cc2cccnc2)c2ccccc12 | 43.1 | – |
| Cc1ccc(Cn2cc(C(=O)Nc3ccccc3C(=O)O)c3ccccc32)cc1 | 61 | – |
| O=C(O)c1cccc(NC(=O)c2c[nH]c3ccccc23)c1 | 25.8 | – |
| COc1ccc(Cn2cc(C(=O)Nc3ccccc3C(=O)O)c3ccccc32)cc1 | 53.9 | – |
| O=C(O)CSc1nnc(Br)n1-c1ccc(C2CC2)c2ccccc12 | 47 | – |
| O=C(O)c1ccccc1NC(=O)c1cn(Cc2ccccn2)c2ccc(F)cc12 | 51.1 | – |
| O=C(O)c1ccccc1NC(=O)c1cn(Cc2cccc(F)c2)c2ccccc12 | 48 | – |
| O=C(O)c1ccccc1NC(=O)c1cn(Cc2ncccn2)c2ccccc12 | 49.9 | – |
| N#Cc1ccc2c(c1)c(C(=O)Nc1cc[nH]c1C(=O)O)cn2Cc1ccccn1 | 51 | IC50 [2]: 2670 nM |
| N#Cc1ccc2c(c1)c(C(=O)Nc1ncc(C(=O)O)s1)cn2Cc1ccccn1 | 15.9 | IC50 [2]: 2120 nM |
| O=C(O)c1ccccc1NC(=O)c1c[nH]c2ccccc12 | 33.2 | – |
| O=C(O)c1ccccc1NC(=O)c1cn(Cc2ccc(Cl)cc2)c2ccccc12 | 69.4 | – |
| COc1ccc(/C=C/C(=O)Nc2ccccc2C(=O)O)cc1OC | 44.9 | Activity [3]: Active |
| O=C(O)c1ccccc1NC(=O)c1cn(C(=O)c2ccccc2)c2ccccc12 | 10.9 | – |
| N#Cc1ccc2c(C(=O)Nc3ccccc3C(=O)O)cn(Cc3ccccn3)c2c1 | 65.7 | – |
| O=C(O)c1ccccc1NC(=O)c1cn(Cc2ccncc2)c2ccccc12 | 68.4 | – |

| SMILES | inhibition at 10 µM [1] [%] | also measured |
| --- | --- | --- |
| O=C(O)c1ccccc1NC(=O)c1cn(Cc2ccc(Br)cc2)c2ccccc12 | 73.6 | – |
| O=C(O)c1ccccc1NC(=O)c1cn(Cc2cscn2)c2ccccc12 | 64.4 | – |
| Cc1ccc2c(c1)c(C(=O)Nc1ccccc1C(=O)O)cn2Cc1ccccn1 | 46.8 | – |
| O=C(O)c1ccccc1NC(=O)c1cn(Cc2ccccn2)c2ccccc12 | 81.4 | – |
| O=C(O)c1ccccc1NC(=O)c1cn(Cc2ccccn2)c2cc(F)ccc12 | 51.6 | – |
| N#Cc1ccc2c(c1)c(C(=O)Nc1scnc1C(=O)O)cn2Cc1ccccn1 | 48 | Ratio IC50 [4]: 9.1; IC50 [2]: 1010 nM; inhibition in vivo at 10 mg/kg [5]: 25.8%; inhibition (INH) [6]: Active; inhibition in vivo at 10 mg/kg [7]: 22.3% |
| Oc1ncnc2[nH]ncc12 | – | Activity [3]: Active |
| Cc1ccc2c(C(=O)Nc3ccccc3C(=O)O)cn(Cc3ccccn3)c2c1 | 49.1 | – |
| O=C(O)c1ccc(NC(=O)c2c[nH]c3ccccc23)cc1 | 0.1 | – |
| O=C(O)c1ccccc1NC(=O)c1cn(Cc2cccs2)c2ccccc12 | 56.7 | – |
| O=C(O)c1ccccc1NC(=O)c1cn(Cc2cccnn2)c2ccccc12 | 10.4 | – |
| CC(C)(C)c1ccc(Cn2cc(C(=O)Nc3ccccc3C(=O)O)c3ccccc32)cc1 | -4.8 | – |
| O=C(O)c1ccccc1NC(=O)c1cn(Cc2ccccc2)c2ccccc12 | 41.3 | – |
| O=C(O)c1ccccc1NC(=O)c1cn(Cc2ccc(F)cc2)c2ccccc12 | 73.4 | – |
| N#Cc1ccc2c(c1)c(C(=O)Nc1ccccc1C(=O)O)cn2Cc1ccccn1 | 60.7 | inhibition at 10 µM [8]: 33.5% |
| O=C(O)c1ccccc1NC(=O)c1cn(Cc2cnccn2)c2ccccc12 | 52.7 | – |
